Where two headings read alike, the source gives them in different places.
Tests used:
IL-6R = biological target: T1, IL-6R (Homo sapiens, UniProt P08887); assay: ELISA assay IL-6R; type: binding; settings: 500 pg/mL IL-6R
T1 construct: purchased PeproTech, Thermo Fisher Scientific
Method: Human ELISA kits for IL-6, IL-6R, and IL-8 (Sigma-Aldrich, Merck, Germany) were used to quantify cytokine levels after treatment with complex 3 or 4. Briefly, 96-well plates precoated with specific antibodies were used to capture IL-6, IL-6R, and IL-8 from samples. […] Each sample was supplemented with 500 pg/mL of IL-6/IL-6R/IL-8. Positive control wells contained only the IL-6/IL-6R/IL-8 standard (PeproTech, Thermo Fisher Scientific, Waltham, Massachusetts, USA). […] After incubation, wells were washed, and biotinylated antihuman antibodies were added, followed by washing and addition of HRP-conjugated streptavidin. Finally, the TMB substrate was added to develop a color proportional to the cytokine concentration, and the reaction was stopped with the stop solution. Absorbance was measured at 450 nm using an […] 200 PRO microplate reader (TECAN, Switzerland).

IKKβ = biological target: T2, IKKβ (Homo sapiens, UniProt O14920); assay: IKKβ inhibition assay (IKKβ Kinase Assay Kit); type: biochemical
T2 construct: purchased BPS Bioscience
T2 sequence (O14920 1-756): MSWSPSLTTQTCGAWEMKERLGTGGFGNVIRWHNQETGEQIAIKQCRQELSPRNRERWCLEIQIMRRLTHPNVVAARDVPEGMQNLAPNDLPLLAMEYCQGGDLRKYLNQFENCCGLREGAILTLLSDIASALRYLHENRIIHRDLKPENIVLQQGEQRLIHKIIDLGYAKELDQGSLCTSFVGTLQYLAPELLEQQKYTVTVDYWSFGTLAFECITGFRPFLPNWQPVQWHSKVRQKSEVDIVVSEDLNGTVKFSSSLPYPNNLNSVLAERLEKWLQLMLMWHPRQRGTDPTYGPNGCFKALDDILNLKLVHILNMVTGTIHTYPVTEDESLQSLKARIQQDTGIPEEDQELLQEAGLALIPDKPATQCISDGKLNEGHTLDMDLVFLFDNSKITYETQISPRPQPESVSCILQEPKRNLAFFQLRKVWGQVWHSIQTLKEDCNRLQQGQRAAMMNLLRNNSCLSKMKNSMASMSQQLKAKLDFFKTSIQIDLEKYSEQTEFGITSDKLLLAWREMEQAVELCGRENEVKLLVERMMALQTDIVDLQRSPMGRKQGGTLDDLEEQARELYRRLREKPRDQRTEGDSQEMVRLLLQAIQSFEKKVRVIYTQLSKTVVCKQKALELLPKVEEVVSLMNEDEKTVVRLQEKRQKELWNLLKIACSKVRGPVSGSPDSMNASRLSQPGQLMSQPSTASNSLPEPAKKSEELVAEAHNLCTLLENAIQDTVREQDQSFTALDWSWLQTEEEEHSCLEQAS
Method: IκB kinase beta (IKKβ) inhibition was determined using the IKKβ Kinase Assay Kit (BPS Bioscience, San Diego, California, USA). […] Kinase-Glo® MAX (Promega, #V6071, Madison, Wisconsin, USA) was used as the detection reagent, with an incubation time of 15 min. Blank values were subtracted from all measurements. Luminescence was measured with an integration time of 1 s using a Spark Microplate Reader (Tecan, Switzerland).

[1] = UV–Vis spectroscopy in PBS (solubility); type: physicochemical; settings: PBS (PBS:DMSO 99:1), UV–Vis linearity of absorbance
Method: All chemicals were sourced from commercial suppliers and utilized directly without any additional purification steps. Nuclear Magnetic Resonance (NMR) spectra were acquired on a 400-MHz spectrometer (JEOL, Tokyo, Japan) at 25°C. The chemical shifts (δ) are given in parts per million (ppm), with coupling constants (J) measured in hertz (Hz). The ^1H and ^13C NMR shifts are referenced to TMS, and solvent signals from Dimethyl Sulfoxide (DMSO)-d6 (2.50 ppm for ^1H and 39.52 ppm for ^13C) were used as references. Data analysis was performed using MestReNova software (version 14.2.1, Mestrelab Research S.L., Santiago de Compostela, SPAIN). Full assignment was performed using a combination of ^1H, ^13C, correlation spectroscopy (COSY), heteronuclear single quantum coherence (HSQC), and heteronuclear multiple bond correlation (HMBC) experiments. Mass spectrometry was conducted in positive ion mode using electrospray ionization (ESI^+) with a high-resolution hybrid Ion Trap-Orbitrap mass spectrometer (LTQ Orbitrap Velos, Thermo Scientific, Waltham, Massachusetts, USA), Supplementary Figures S21, S22. Detailed NMR spectra for all synthesized products are available in Supplementary Figures S12-S20. […] Characteristic absorption maxima were identified, and their dependence on concentration was evaluated.

Detroit 562 = assay: MTT viability assay; type: cell-based, human
Method: (§1) A colorimetric 3-(4,5-dimethylthiazolyl)-2,5-diphenyltetrazolium bromide (MTT) cell metabolic activity assay was used to assess the cytotoxicity of complexes 3 and 4. The cells (described above) were cultured under standard conditions. Cells were seeded in 96-well plates at a density of 10,000 cells per well (200 μL) and allowed to grow for 24 h. The medium was then replaced with medium containing complex 3 or 4 at a concentration ranging from 0 to 200 μM, and the cells were incubated for an additional 24, 48, and 72 h. Subsequently, the medium was replaced with MTT solution, consisting of yellow tetrazolium dye 3-(4,5-dimethylthiazol-2-yl)-2,5-diphenyltetrazolium bromide (Sigma-Aldrich, Merck, Germany), and incubated for 2 h at 37°C. The dye was then removed, and the resulting purple formazan formed in viable cells was dissolved in DMSO, followed by shaking for 30 s. Absorbance was measured at 570 nm using an […] 200 PRO microplate reader (TECAN, Männedorf, Switzerland). All experiments were performed in quadruplicate and repeated three times.
(§2) The cell inhibitory concentration (IC) was calculated using the equation IC = (Acomplex3/complex4 well/mean Acontrol wells) × 100%. The half-maximal inhibitory concentration (IC50) was determined from dose–response curves using GraphPad Prism 10 (GraphPad Software Inc., La Jolla, CA, USA). The selectivity index toward cancer cells was calculated as a ratio of the average IC50 value for HGF to the IC50 value for the corresponding cancer cell line.

FaDu = assay: MTT viability assay; type: cell-based, human
Method: as §1, §2

TR146 = assay: MTT viability assay; type: cell-based, human
Method: as §1, §2

CAL 27 = assay: MTT viability assay; type: cell-based, human
Method: as §1, §2

KB = assay: MTT viability assay; type: cell-based, human
Method: as §1, §2

[2] = Detroit 562, 24 h, read-out: IC50 24h
[3] = Detroit 562, 48 h, read-out: IC50 48h
[4] = Detroit 562, 72 h, read-out: IC50 72h
[5] = TR146, 24 h, read-out: IC50 24h
[6] = TR146, 48 h, read-out: IC50 48h
[7] = TR146, 72 h, read-out: IC50 72h
[8] = CAL 27, 24 h, read-out: IC50 24h
[9] = CAL 27, 48 h, read-out: IC50 48h
[10] = CAL 27, 72 h, read-out: IC50 72h

T1 sequence (P08887 20-468): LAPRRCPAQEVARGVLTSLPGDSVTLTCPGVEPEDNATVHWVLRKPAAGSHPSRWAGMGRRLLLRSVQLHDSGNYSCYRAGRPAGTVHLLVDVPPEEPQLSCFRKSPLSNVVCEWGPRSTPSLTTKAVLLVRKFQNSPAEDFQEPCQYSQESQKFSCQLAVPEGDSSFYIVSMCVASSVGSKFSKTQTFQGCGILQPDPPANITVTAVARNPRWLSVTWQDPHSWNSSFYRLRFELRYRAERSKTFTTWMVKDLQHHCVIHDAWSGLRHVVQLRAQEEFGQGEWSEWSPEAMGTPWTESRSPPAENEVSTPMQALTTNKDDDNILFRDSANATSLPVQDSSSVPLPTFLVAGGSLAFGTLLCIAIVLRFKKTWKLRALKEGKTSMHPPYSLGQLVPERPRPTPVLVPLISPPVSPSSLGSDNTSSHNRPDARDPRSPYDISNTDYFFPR

| Structure (SMILES) | Decrease in IL-6R concentration (IL-6R; 8 μM) | Reduction of IKKβ activity (IKKβ; 8 μM) | Solubility in the buffered environment [1] | IC50 (Detroit 562; [2]) [µM] | IC50 (Detroit 562; [3]) [µM] | IC50 (Detroit 562; [4]) [µM] | IC50 (FaDu; 24 h, read-out: IC50 24h) [µM] | IC50 (FaDu; 48 h, read-out: IC50 48h) [µM] | IC50 (FaDu; 72 h, read-out: IC50 72h) [µM] | IC50 (TR146; [5]) [µM] | IC50 (TR146; [6]) [µM] | IC50 (TR146; [7]) [µM] | IC50 (CAL 27; [8]) [µM] | IC50 (CAL 27; [9]) [µM] | IC50 (CAL 27; [10]) [µM] | IC50 (KB; 24 h, read-out: IC50 24h) [µM] | IC50 (KB; 48 h, read-out: IC50 48h) [µM] | IC50 (KB; 72 h, read-out: IC50 72h) [µM] | Decrease in IL-6R concentration (IL-6R; 15 μM) | Inhibition of IKKβ activity (IKKβ; 1 μM) |
| --- | --- | --- | --- | --- | --- | --- | --- | --- | --- | --- | --- | --- | --- | --- | --- | --- | --- | --- | --- | --- |
| Cc1ccc(C(C)C)cc1.Cc1ccc(C(C)C)cc1.O=C1C(=Cc2ccnc3ccccc23)COCC1=Cc1ccnc2ccccc12.[Cl][Ru][Cl].[Cl][Ru][Cl] [Complex 3] | about 15% | about 40% | sufficient solubility | 12.3 ± 1.83 | 3.9 ± 0.13 | 3.5 ± 0.11 | 8.65 | 5.75 ± 0.06 | 3.85 ± 0.24 | 19.7 ± 4.82 | 11.3 ± 0.78 | 4.9 ± 0.42 | 22.5 ± 1.08 | 12.9 ± 2.56 | 6.35 ± 1.75 | 14.3 | 10.5 ± 0.43 | 3.7 ± 0.42 |  |  |
| Cc1ccc(C(C)C)cc1.Cc1ccc(C(C)C)cc1.O=C1C(=Cc2cccnc2)CCC1=Cc1cccnc1.[Cl][Ru][Cl].[Cl][Ru][Cl] [Complex 4] |  |  | sufficient solubility | 21.7 ± 2.45 | 42.2 ± 0.62 | 18.1 ± 2.63 | 25.9 ± 0.25 | 17.1 ± 2.24 | 21.6 ± 0.73 | 59.3 ± 3.24 | 16.8 ± 0.81 | 18.2 ± 1.07 | 27.1 ± 0.79 | 16.1 ± 0.57 | 33.3 ± 0.65 | 20.8 ± 0.77 | 25.2 ± 0.33 | 30.3 ± 0.65 | about 15% | approximately 30% |
